# Results as given in PMC3104405 (Biochemical and biophysical research communications, 2011).
# “And” between values parts separate entries of the source, which are not always exact repeats. Identical values can stand only once. Like-named read-outs stand apart in the source and are kept apart here.
# Tests used:
# [1] = molecular target: T1, anthrax lethal factor (LF) (Bacillus anthracis, UniProt P15917); settings: for Km / kcat / kcat/Km: pH 7.4
# [2] = molecular target: T1, anthrax lethal factor (LF)
# T1 sequence (P15917 34-809 limits assumed): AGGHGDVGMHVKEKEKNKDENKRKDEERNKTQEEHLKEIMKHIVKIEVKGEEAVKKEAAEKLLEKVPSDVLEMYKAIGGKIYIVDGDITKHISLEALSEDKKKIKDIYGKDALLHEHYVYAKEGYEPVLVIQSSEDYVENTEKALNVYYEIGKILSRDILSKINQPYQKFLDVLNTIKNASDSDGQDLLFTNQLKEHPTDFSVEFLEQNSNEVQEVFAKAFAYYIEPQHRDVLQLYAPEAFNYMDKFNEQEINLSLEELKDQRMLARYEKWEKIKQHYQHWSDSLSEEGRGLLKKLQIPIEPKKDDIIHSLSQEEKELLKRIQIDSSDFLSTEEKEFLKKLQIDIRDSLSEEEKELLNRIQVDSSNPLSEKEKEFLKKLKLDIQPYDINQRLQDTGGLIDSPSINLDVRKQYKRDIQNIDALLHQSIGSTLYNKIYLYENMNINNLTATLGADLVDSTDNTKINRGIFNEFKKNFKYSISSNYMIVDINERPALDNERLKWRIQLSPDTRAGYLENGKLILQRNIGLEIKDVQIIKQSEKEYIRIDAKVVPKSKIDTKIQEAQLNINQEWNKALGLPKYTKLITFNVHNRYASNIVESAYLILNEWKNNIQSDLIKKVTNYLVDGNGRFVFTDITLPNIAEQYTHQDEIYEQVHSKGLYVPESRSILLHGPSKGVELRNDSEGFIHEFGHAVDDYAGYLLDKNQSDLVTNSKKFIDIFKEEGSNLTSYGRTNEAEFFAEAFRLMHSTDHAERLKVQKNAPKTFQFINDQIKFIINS
Substance,Km [1] [µM],kcat [1] [s⁻¹],kcat/Km [1] [M⁻¹ s⁻¹],kcat/Km [2],fold higher kcat/Km than substrate No. 2 [1]
Mca-KKVYP-YPMEK-Dnp [Substrate 2],58.5,74.17,1.27,–,–
Mca-KKPTP-IQLN-Dnp [Substrate 1],–,–,–,1.5 min^−1 M^−1 and 1.5 ^a min^−1 M^−1,–
Mca-KKWLM-YPLEK-Dnp [Substrate 3],16.9,39.83,2.33,–,about two-fold
